Measurements: PubChem BioAssay AID1918995 (Molecular Pharmacology Branch, DTP, NCI, 2023)
Values joined by “and” are separate entries in the source; they are usually repeats but may differ in a detail not shown here. Equal values may be shown once.

Test system: 324938-238-R-J1-PDC complex spheroid growth, % test/control
Assay: Anticancer human tumor 324938-238-R-J1-PDC patient-derived bladder carcinoma cell line growth inhibition [AhR]
Settings: for viability, T/C: stronger effect = lower value; for IC50: curve of first compound
Outline: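 Agents were dosed in half-log steps down from roughly clinical Cmax, or from 10 microM where Cmax was unknown, alone and with AhR antagonists. Read-out: percent test/control growth of tumor spheroids containing HUVEC and MSC stromal cells.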

[1] = second compound 0.1 µM, first compound 0.0316 µM
[2] = second compound 0.1 µM, first compound 0.1 µM
[3] = second compound 0.1 µM, first compound 0.316 µM
[4] = second compound 0.1 µM, first compound 1 µM
[5] = second compound 0.316 µM, first compound 0.0316 µM
[6] = second compound 0.316 µM, first compound 0.1 µM
[7] = second compound 0.316 µM, first compound 0.316 µM
[8] = second compound 0.316 µM, first compound 1 µM
[9] = second compound 1 µM, first compound 0.0316 µM
[10] = second compound 1 µM, first compound 0.1 µM
[11] = second compound 1 µM, first compound 0.316 µM
[12] = second compound 1 µM, first compound 1 µM
[13] = second compound 3.16 µM, first compound 0.0316 µM
[14] = second compound 3.16 µM, first compound 0.1 µM
[15] = second compound 3.16 µM, first compound 0.316 µM
[16] = second compound 3.16 µM, first compound 1 µM
[17] = second compound 10 µM, first compound 0.0316 µM
[18] = second compound 10 µM, first compound 0.1 µM
[19] = second compound 10 µM, first compound 0.316 µM
[20] = second compound 10 µM, first compound 1 µM
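Further: spheroids exposed to agents for seven days before viability read.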

Structure (SMILES)	IC50 (second compound 0.1 µM) [nM]	IC50 (second compound 0.316 µM) [nM]	IC50 (second compound 1 µM) [nM]	IC50 (second compound 3.16 µM) [nM]	IC50 (second compound 10 µM) [nM]	viability, T/C [1] [%]	viability, T/C [2] [%]	viability, T/C [3] [%]	viability, T/C [4] [%]	viability, T/C [5] [%]	viability, T/C [6] [%]	viability, T/C [7] [%]	viability, T/C [8] [%]	viability, T/C [9] [%]	viability, T/C [10] [%]	viability, T/C [11] [%]	viability, T/C [12] [%]	viability, T/C [13] [%]	viability, T/C [14] [%]	viability, T/C [15] [%]	also measured
CC1COCCN1c1cc(-c2ccnn2C)c2ccnc(-c3ccn[nH]3)c2n1 (stereo unspecified)																					viability, T/C (compound 0.00316 µM): 98.3% and 108% and 107%; viability, T/C (compound 0.01 µM): 92.6% and 112% and 110%; viability, T/C (compound 0.0316 µM): 67.5% and 99.7% and 66.6%; viability, T/C (compound 0.1 µM): 55.1% and 76.3% and 45%; viability, T/C (compound 0.316 µM): 83.7% and 48.9% and 31.1%; viability, T/C (compound 1 µM): 68.1% and 27.7% and 19.9%
COc1ccc([C@@H](O)c2cc(-c3ncnc4cc(N5CCOCC5)ccc34)c(F)cc2Cl)nn1 + Cc1ccccc1N=Nc1ccc(NC(=O)c2ccnn2C)c(C)c1	> 10000	> 10000	> 10000	9010	7490	109	110	98.5	96.8	94.3	99.9	89.8	83.4	100	87.6	93	84.1	83.5	83.5	75.7	viability, T/C (second compound 0.1 µM, first compound 3.16 µM): 80.7%; viability, T/C (second compound 0.1 µM, first compound 10 µM): 65.2%; viability, T/C (second compound 0.316 µM, first compound 3.16 µM): 74.9%; viability, T/C (second compound 0.316 µM, first compound 10 µM): 58.6%; viability, T/C (second compound 1 µM, first compound 3.16 µM): 72.2%; viability, T/C (second compound 1 µM, first compound 10 µM): 55.4%; viability, T/C [16]: 65.1%; viability, T/C (second compound 3.16 µM, first compound 3.16 µM): 57.4%; viability, T/C (second compound 3.16 µM, first compound 10 µM): 48.8%; viability, T/C [17]: 72.7%; viability, T/C [18]: 81.1%; viability, T/C [19]: 72.7%; viability, T/C [20]: 66.6%; viability, T/C (second compound 10 µM, first compound 3.16 µM): 59.2%; viability, T/C (second compound 10 µM, first compound 10 µM): 47%
CC1COCCN1c1cc(-c2ccnn2C)c2ccnc(-c3ccn[nH]3)c2n1 (stereo unspecified) + Cc1ccccc1N=Nc1ccc(NC(=O)c2ccnn2C)c(C)c1	277	379	245	309	324	102	74.7	48.8	32.7	88.8	71.5	53.6	30.4	87.6	65.8	46.6	31.5	73.8	67.5	49.8	viability, T/C (second compound 0.1 µM, first compound 0.00316 µM): 102%; viability, T/C (second compound 0.1 µM, first compound 0.01 µM): 104%; viability, T/C (second compound 0.316 µM, first compound 0.00316 µM): 104%; viability, T/C (second compound 0.316 µM, first compound 0.01 µM): 90.8%; viability, T/C (second compound 1 µM, first compound 0.00316 µM): 95%; viability, T/C (second compound 1 µM, first compound 0.01 µM): 95.4%; viability, T/C (second compound 3.16 µM, first compound 0.00316 µM): 78.8%; viability, T/C (second compound 3.16 µM, first compound 0.01 µM): 88.3%; viability, T/C [16]: 31.6%; viability, T/C (second compound 10 µM, first compound 0.00316 µM): 74.3%; viability, T/C (second compound 10 µM, first compound 0.01 µM): 81.2%; viability, T/C [17]: 71%; viability, T/C [18]: 64.4%; viability, T/C [19]: 50.8%; viability, T/C [20]: 35%
